Data on 40 molecules can be found in patent US20250144172A1, “ANTI-FIBROTIC SIALIDASE INHIBITOR COMPOUNDS AND METHODS OF USE” (The Texas A&M University System, priority 2016, published 2025).

Read-outs that look alike come from different tables or passages of the source.

For one experiment, the target named is human NEU2 (Homo sapiens (Human), UniProt Q9Y3R4). The experiment is described as follows: human NEU2 sialidase inhibition. The following applies: for IC50: read-out: NEU2 IC50, human NEU2.
Sequence of human NEU2 (Q9Y3R4 whole entry): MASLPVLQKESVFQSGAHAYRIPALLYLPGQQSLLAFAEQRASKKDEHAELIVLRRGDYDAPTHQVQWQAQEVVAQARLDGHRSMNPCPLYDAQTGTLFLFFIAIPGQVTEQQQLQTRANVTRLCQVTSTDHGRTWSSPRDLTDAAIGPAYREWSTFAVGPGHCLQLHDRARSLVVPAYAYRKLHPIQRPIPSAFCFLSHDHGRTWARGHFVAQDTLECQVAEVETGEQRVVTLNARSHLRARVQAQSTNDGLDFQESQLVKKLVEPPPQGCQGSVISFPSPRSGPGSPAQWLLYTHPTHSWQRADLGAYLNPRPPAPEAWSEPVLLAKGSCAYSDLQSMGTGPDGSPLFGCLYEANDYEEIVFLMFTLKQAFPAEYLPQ
The target of the next experiment is human NEU3 (Homo sapiens (Human), UniProt Q9UQ49). The experiment is described as follows: human NEU3 sialidase inhibition.
Sequence of human NEU3 (Q9UQ49 whole entry): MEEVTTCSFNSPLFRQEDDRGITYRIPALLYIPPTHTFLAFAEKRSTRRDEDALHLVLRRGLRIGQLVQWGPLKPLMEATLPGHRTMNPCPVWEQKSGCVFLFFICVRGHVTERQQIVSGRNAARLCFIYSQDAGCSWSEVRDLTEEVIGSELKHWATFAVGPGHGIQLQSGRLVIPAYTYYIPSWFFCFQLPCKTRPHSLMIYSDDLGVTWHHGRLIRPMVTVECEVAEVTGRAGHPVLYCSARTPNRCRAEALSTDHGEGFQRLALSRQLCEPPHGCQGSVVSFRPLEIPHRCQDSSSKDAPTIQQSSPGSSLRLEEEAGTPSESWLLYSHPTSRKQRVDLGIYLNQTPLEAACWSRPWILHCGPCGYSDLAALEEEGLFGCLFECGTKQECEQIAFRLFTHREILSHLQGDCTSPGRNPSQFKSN
A further experiment has as its target human NEU1 (Homo sapiens (Human), UniProt Q99519). The experiment is described as follows: human NEU1 sialidase inhibition.
For a further experiment, the target named is human NEU4 (Homo sapiens (Human), UniProt Q8WWR8). The experiment is described as follows: human NEU4 sialidase inhibition.
Sequence of human NEU4 (Q8WWR8 whole entry): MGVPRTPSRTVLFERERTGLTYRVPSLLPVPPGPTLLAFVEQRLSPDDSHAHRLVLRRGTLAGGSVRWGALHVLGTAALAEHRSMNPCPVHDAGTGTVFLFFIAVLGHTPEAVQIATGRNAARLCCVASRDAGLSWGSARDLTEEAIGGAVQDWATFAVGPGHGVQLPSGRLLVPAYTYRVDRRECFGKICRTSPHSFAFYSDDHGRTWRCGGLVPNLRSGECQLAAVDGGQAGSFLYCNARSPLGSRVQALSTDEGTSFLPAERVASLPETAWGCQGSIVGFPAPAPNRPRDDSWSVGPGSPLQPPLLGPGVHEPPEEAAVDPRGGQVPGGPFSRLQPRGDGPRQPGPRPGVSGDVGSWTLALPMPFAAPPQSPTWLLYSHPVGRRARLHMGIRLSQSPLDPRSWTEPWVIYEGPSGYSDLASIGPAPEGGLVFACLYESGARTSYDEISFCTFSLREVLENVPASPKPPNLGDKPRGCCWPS
Where [1] appears, read: read-out: NEU3 IC50, human NEU3.
Setting [2] is: read-out: NEU1 IC50, human NEU1.
The mark [3] stands for this setting: read-out: NEU4 IC50, human NEU4.

From the text for human NEU1: (§1) Enzymatic activity may be defined as inhibited if the rate measured by the Michaelis-Menten equation in an in vitro assay using a substrate with a terminal sialic acid is inhibited by at least 50%. More specifically, a human sialidase inhibitor may be a compound that inhibits the rate of at least one human sialidase by at least 50% as measured by the Michaelis-Menten equation in an in vitro assay using the fluorometric substrate 4MU-NANA [2′-(4-Methylumbelliferyl)-α-D-N-acetylneuraminic acid.
(§2) In general, sialidase activity, including human sialidase activity, may be assessed at 37° C. in the presence of buffers ranging in pH from 3.7 to 7.4. […] Bovine serum albumin (BSA) is added to the buffer at a concentration of 100 ug/ml. Sialidase at a final concentration of 300 ng/ml is then added to the buffer. A sialidase inhibitor is then added to the mixture at a series of final concentrations. The reaction mixture is incubated for 30 minutes to allow the inhibitor to bind the sialidase. The fluorometric substrate 4MU-NANA [2′-(4-Methylumbelliferyl)-α-D-N-acetylneuraminic acid sodium salt hydrate is then added at a final concentration of 200 μM. […] The total volume of each reaction mixture is 0.1 ml. The cleavage of 4MU-NANA is then monitored by fluorescence every 20 minutes for 5 hours with excitation light at 360 nm and the fluorescence emission at 460 nm.
(§3) The fluorescence in the absence of sialidases is subtracted from all readings.
From the text for human NEU2: as §1, §2, §3
From the text for human NEU3: as §1, §2, §3
From the text for human NEU4: as §1, §2, §3

By IC50 is commonly meant the concentration at which inhibition is half-maximal. On to “2,6-Anhydro-3,5-dideoxy-5-glycolylamido-D-glycero-D-galactonon-2-enonic acid [Compound 39]”, for which the IC50 on human NEU2 worked out at 34 ± 4 µM.

As for `CC(=O)NC[C@H](O)[C@H](O)[C@@H]1OC(C(=O)O)=C[C@H](O)[C@H]1NC(C)=O` [Compound 2], the figures for the half-inhibitory concentration (IC50) on human NEU3 (setting [1]), on human NEU1 (setting [2]) and at human NEU4 (setting [3]) were more than 1000 µM, 58 µM and 580 µM, respectively.

Turning to `CC(=O)N[C@H]1[C@H]([C@@H](O)[C@@H](O)CNC(=O)c2ccccc2)OC(C(=O)O)=C[C@@H]1O` [Compound 3], the figures for the IC50 on human NEU3 (setting [1]), at human NEU1 (setting [2]) and on human NEU4 (setting [3]) were 320 µM, 13 µM and 810 µM, respectively.

With `CC(=O)N[C@H]1[C@H]([C@@H](O)[C@@H](O)CNC(=O)C2CCCC2)OC(C(=O)O)=C[C@@H]1O` [Compound 4], the IC50 was more than 1000 µM at human NEU3 (setting [1]), 135 µM on human NEU1 (setting [2]) and more than 1000 µM on human NEU4 (setting [3]).

Turning to `CC(=O)N[C@H]1[C@H]([C@@H](O)[C@@H](O)CNC(=O)C2CC2)OC(C(=O)O)=C[C@@H]1O` [Compound 5], the IC50 at human NEU3 (setting [1]) was more than 1000 µM; at human NEU1 (setting [2]) it was 680 µM; at human NEU4 (setting [3]), 825 µM.

Take `CCCC(=O)NC[C@H](O)[C@H](O)[C@@H]1OC(C(=O)O)=C[C@H](O)[C@H]1NC(C)=O` [Compound 6]: the IC50 at human NEU3 (setting [1]) was more than 1000 µM; on human NEU1 (setting [2]), 32 µM.

With `CC(=O)N[C@H]1[C@H]([C@@H](O)[C@@H](O)CNC(=O)CC(C)C)OC(C(=O)O)=C[C@@H]1O` [Compound 7], the half-maximal inhibitory concentration (IC50) on human NEU3 (setting [1]) was more than 1000 µM; at human NEU1 (setting [2]), 565 µM; on human NEU4 (setting [3]), more than 1000 µM.

As to `CCCCC(=O)NC[C@H](O)[C@H](O)[C@@H]1OC(C(=O)O)=C[C@H](O)[C@H]1NC(C)=O` [Compound 8], the IC50 on human NEU4 (setting [3]) was more than 1000 µM.

Usually Ki stands for a measure of affinity in units of concentration, obtained from inhibition or displacement. For the molecule `CC(=O)N[C@@H]1[C@@H](O)C=C(C(=O)O)C[C@H]1OCC(C)C` [Compound 12], the affinity at human NEU2 corresponds to a Ki of 880 µM.

On to `CC(=O)N[C@@H]1[C@@H](O)C=C(C(=O)O)C[C@H]1OCCCO` [Compound 13], for which the inhibitory constant (Ki) at human NEU2 turned out to be 740 µM.

For `CC(=O)N[C@@H]1[C@@H](O)C=C(C(=O)O)C[C@H]1OCC(O)CO` (stereo partly shown) [Compound 14], on human NEU2, the Ki is 1400 µM.

As to `CC(=O)N[C@H]1[C@H]([C@H](O)[C@H](O)Cn2ccnn2)OC(C(=O)O)=C[C@@H]1O` [Compound 15], the concentration for half-maximal inhibition (IC50) on human NEU3 (setting [1]) came out at 70 ± 20 µM.

For `CC(=O)N[C@H]1[C@H]([C@H](O)[C@H](O)Cn2cc(-c3ccccc3)nn2)OC(C(=O)O)=C[C@@H]1O` [Compound 16], at human NEU3 (setting [1]), the 50% inhibitory concentration (IC50) was 20 ± 10 µM.

As to `CCCCCCc1cn(C[C@@H](O)[C@@H](O)[C@@H]2OC(C(=O)O)=C[C@H](O)[C@H]2NC(C)=O)nn1` [Compound 17], on human NEU3 (setting [1]), the IC50 was 23 ± 4 µM.

On to `CCOc1cn(C[C@@H](O)[C@@H](O)[C@@H]2OC(C(=O)O)=C[C@H](O)[C@H]2NC(C)=O)nn1` [Compound 18], for which the half-maximal inhibitory concentration (IC50) at human NEU3 (setting [1]) is 300 ± 200 µM.

With `CCOC(OCC)c1cn(C[C@@H](O)[C@@H](O)[C@@H]2OC(C(=O)O)=C[C@H](O)[C@H]2NC(C)=O)nn1` [Compound 19], on human NEU3 (setting [1]), the IC50 came to 130 ± 20 µM.

Regarding `CC(=O)N[C@H]1[C@H]([C@H](O)[C@H](O)Cn2cc(COc3ccccc3)nn2)OC(C(=O)O)=C[C@@H]1O` [Compound 20], the half-maximal inhibitory concentration (IC50) at human NEU3 (setting [1]) was determined as 45 ± 3 µM.

With `CC(=O)N[C@H]1[C@H]([C@H](O)[C@H](O)Cn2cc(CO)nn2)OC(C(=O)O)=C[C@@H]1O` [Compound 21], on human NEU3 (setting [1]), the IC50 worked out at 300 ± 400 µM.

With `CC(=O)N[C@H]1[C@H]([C@H](O)[C@H](O)Cn2cc(CCO)nn2)OC(C(=O)O)=C[C@@H]1O` [Compound 22], the IC50 at human NEU3 (setting [1]) worked out at 400 ± 600 µM.

In the case of `CC(=O)N[C@H]1[C@H]([C@H](O)[C@H](O)Cn2cc(CCCO)nn2)OC(C(=O)O)=C[C@@H]1O` [Compound 23], the half-maximal inhibitory concentration (IC50) at human NEU3 (setting [1]) was determined as 500 ± 200 µM.

Consider `CC(=O)N[C@H]1[C@H]([C@H](O)[C@H](O)Cn2cc(C(C)(C)O)nn2)OC(C(=O)O)=C[C@@H]1O` [Compound 24], for which the IC50 on human NEU3 (setting [1]) turned out to be 300 ± 500 µM.

At human NEU3, `O=C(Cn1ccnn1)N[C@H]1[C@H]([C@H](O)[C@H](O)CO)OC(C(=O)O)=C[C@@H]1O` [Compound 25] returned a Ki of 21 ± 8 µM.

`CCC(CC)O[C@@H]1CC(C(=O)O)C=C(n2cc([C@]3(O)CCC4C5CCc6cc(O)ccc6C5CC[C@@]43C)nn2)[C@H]1NC(C)=O` (stereo partly shown) [Compound 29]: the IC50 against human NEU3 (NEU3 IC50, human NEU3) came out at 350 ± 100 µM; at human NEU4 it was 800 ± 400 µM.

With `CCC(CC)O[C@@H]1CC(C(=O)O)C=C(n2cc(C(C)(C)O)nn2)[C@H]1NC(C)=O` (stereo partly shown) [Compound 30], the concentration for half-maximal inhibition (IC50) on human NEU3 (setting [1]) is 640 ± 210 µM.

Take `CC(=O)N[C@H]1[C@H]([C@H](O)[C@H](O)CN=[N+]=[N-])OC(C(=O)O)=C[C@@H]1O` [Compound 32]: the IC50 on human NEU2 was 31 ± 6 µM.

For the molecule `CC(=O)N[C@@H]1C(N=[N+]=[N-])C=C(C(=O)O)OC1C(O)C(O)CO` (stereo partly shown) [Compound 37], the IC50 was 54 ± 5 µM at human NEU3 (NEU3 IC50, human NEU3); 360 ± 50 µM at human NEU1; 1000 ± 60 µM at human NEU4.

Regarding `CC(=O)N[C@@H]1C(N=[N+]=[N-])C=C(C(=O)O)OC1CNOCc1ccccc1` (stereo partly shown) [Compound 41], at human NEU3 (NEU3 IC50, human NEU3), the concentration for half-maximal inhibition (IC50) was determined as 24 ± 2 µM.

In the case of `CC(=O)N[C@@H]1C(N=[N+]=[N-])C=C(C(=O)O)OC1CN(Cc1ccccc1)OCc1ccccc1` (stereo partly shown) [Compound 42], the IC50 amounted to 24 ± 11 µM on human NEU3 (NEU3 IC50, human NEU3) and 350 ± 180 µM against human NEU4.

`CC(=O)N[C@@H]1C(N=[N+]=[N-])C=C(C(=O)O)OC1CNNc1ccccc1` (stereo partly shown) [Compound 43] showed an IC50 at human NEU3 (NEU3 IC50, human NEU3) of 20 ± 8 µM.

Molecule `CC(=O)N[C@@H]1C(N)C=C(C(=O)O)OC1CNc1ccccc1` (stereo partly shown) [Compound 44] showed a half-inhibitory concentration (IC50) on human NEU3 (NEU3 IC50, human NEU3) of 540 ± 30 µM.

On to `CC(=O)N[C@@H]1C(O)C=C(C(=O)O)OC1CNNCc1ccc(-c2ccccc2)cc1` (stereo partly shown) [Compound 47], for which the concentration for half-maximal inhibition (IC50) turned out to be 70 ± 20 µM on human NEU3 (NEU3 IC50, human NEU3) and 200 ± 20 µM against human NEU4.

As to `CC(=O)N[C@@H]1C(O)C=C(C(=O)O)OC1C(O)C(O)CN=[N+]=[N-]` (stereo partly shown) [Compound 48], the 50% inhibitory concentration (IC50) on human NEU3 (NEU3 IC50, human NEU3) is 19.7 ± 2.3 µM; against human NEU1 it was 620 ± 10 µM; against human NEU4 it was 60 ± 20 µM.

Take `[N-]=[N+]=NCC(=O)N[C@@H]1C(O)C=C(C(=O)O)OC1C(O)C(O)CO` (stereo partly shown) [Compound 49]: the half-maximal inhibitory concentration (IC50) against human NEU3 (NEU3 IC50, human NEU3) is 4.7 ± 0.3 µM; against human NEU1, 29 ± 0.5 µM; on human NEU4, 4.5 ± 0.1 µM.

Regarding `O=C(Cn1cc(-c2ccccc2)nn1)N[C@@H]1C(O)C=C(C(=O)O)OC1C(O)C(O)CO` (stereo partly shown) [Compound 50], the concentration for half-maximal inhibition (IC50) on human NEU4 turned out to be 250 ± 40 µM.

In the case of `CC(=O)N[C@H]1C([C@@H](O)[C@@H](O)Cn2cc(-c3ccccc3)nn2)OC(C(=O)O)=C[C@@H]1O` (stereo partly shown) [Compound 51], the half-inhibitory concentration (IC50) at human NEU3 (setting [1]) came to 4.6 ± 0.2 µM; on human NEU1 (setting [2]), 200 ± 30 µM; at human NEU4 (setting [3]), 2.3 ± 0.2 µM.

Turning to `CCOc1cn(C[C@H](O)[C@H](O)C2OC(C(=O)O)=C[C@H](O)[C@H]2NC(C)=O)nn1` (stereo partly shown) [Compound 52], the IC50 stood at 90 ± 10 µM at human NEU3 (setting [1]), 170 ± 20 µM at human NEU1 (setting [2]) and 3.6 ± 0.3 µM at human NEU4 (setting [3]).

Consider `CC(=O)N[C@H]1C([C@@H](O)[C@@H](O)Cn2cc(CO)nn2)OC(C(=O)O)=C[C@@H]1O` (stereo partly shown) [Compound 54], for which the values for the IC50 at human NEU3 (setting [1]) and at human NEU1 (setting [2]) were 80 ± 10 µM and more than 1000 µM, respectively.

As to `CC(=O)N[C@H]1C([C@@H](O)[C@@H](O)Cn2cc(CCO)nn2)OC(C(=O)O)=C[C@@H]1O` (stereo partly shown) [Compound 55], the figures for the IC50 on human NEU3 (setting [1]), at human NEU1 (setting [2]) and on human NEU4 (setting [3]) were 38 ± 2 µM, more than 1000 µM and 0.81 ± 0.04 µM, respectively.

For `CC(=O)N[C@H]1C([C@@H](O)[C@@H](O)Cn2cc(CCCO)nn2)OC(C(=O)O)=C[C@@H]1O` (stereo partly shown) [Compound 56], the results for the IC50 at human NEU3 (setting [1]), at human NEU1 (setting [2]) and at human NEU4 (setting [3]) were 39 ± 1 µM, 660 ± 20 µM and 2.1 ± 0.1 µM, respectively.

For `CC(=O)N[C@H]1C([C@@H](O)[C@@H](O)Cn2cc(C(C)(C)O)nn2)OC(C(=O)O)=C[C@@H]1O` (stereo partly shown) [Compound 57], the IC50 on human NEU1 (setting [2]) was more than 1000 µM; on human NEU4 (setting [3]) it was 4 ± 0.3 µM.
